The text below walks through data of patent US20240174744A1, “METHODS OF TREATMENT USING PROTEIN BINDERS TO IRHOM2 EPITOPES” (SCIRHOM GMBH, priority 2021, published 2024).

The assay relates to PMA-induced release of HB-EGF from PBMCs from patients suffering from rheumatoid arthritis. Kind of assay: ELISA-based HB-EGF release assay, PBMCs from RA-patients. In kind it is cell-based. The note with it: Homo sapiens; chimeric antibodies (CHO) 1 μg/ml; Batimastat 10 μM; PMA 25 ng/ml, 6 hours. The procedure: In contrast to Example 35, where the inhibitory effects of the antibodies of the present disclosure on PMA-induced release of endogenous HB-EGF from primary human material obtained from healthy donors using peripheral blood mononuclear cells (PBMCs) were tested, this analysis was conducted to analyze the inhibitory effects of the antibodies of the present disclosure on PMA-induced release of endogenous HB-EGF from primary human material obtained from patients suffering from rheumatoid arthritis (RA-patients).
In brief, on day 1, Nunc black MaxiSorp® 96-well plates (Thermo Fisher Scientific, USA) were coated overnight with 100 μl per well of rat anti-human HB-EGF capture antibody (provided as part of the DuoSet ELISA kit) at 2 μg/ml TBS at 4° C. On day 2, the capture antibody solution was removed and MaxiSorp® plates were blocked with 300 μl per well of TBS, 1% BSA at room temperature for 3 hours. […]
To avoid drying-up, 30 μl TBS were added to each well of the MaxiSorp® plates immediately, followed by the transfer of 70 μl cell-free supernatant per sample. […] Using an infinite M1000 (Tecan Group, Switzerland) microplate reader, the fluorescence of each well was collected at an excitation wavelength of 435 nm and an emission wavelength of 555 nm.
For orientation: An ELISA detects its analyte on a solid surface through an enzyme-linked reagent.

As for `CNC(=O)[C@H](Cc1ccccc1)NC(=O)[C@H](CC(C)C)[C@H](CSc1cccs1)C(=O)NO` [Batimastat], the inhibition at 10 µM is 102%.

The inhibition is the change of the read-out against control, counted positive when it falls.
